Experimental data taken from patent publication US9962369B2, “Methods and compositions for transdermal delivery” (SPRAYABLE HOLDINGS, INC., priority 2014, dated 2018).

Experiment: Transdermal delivery of melatonin: plasma level of melatonin after applying composition to skin of a subject
Settings: 0.3 mL of 7% helper ester + 1% melatonin in water on skin of the back (20 cm×20 cm); control 2.0 ml of […] melatonin suspension in water; plasma level at 1, 2, 4, 8 hours

Row | SMILES | transdermal delivery of melatonin compared to control composition (A)
1 | CCCOC(=O)[C@@H](N)Cc1ccc(O)cc1 [Tyrosine propyl ester] | more efficient and effective transdermal delivery of melatonin
2 | CCCCCOC(=O)[C@@H](N)Cc1ccc(O)cc1 [Tyrosine pentyl ester] | more efficient and effective transdermal delivery of melatonin
3 | CC(C)OC(=O)[C@@H](N)Cc1ccc(O)cc1 [Tyrosine isopropyl ester] | more efficient and effective transdermal delivery of melatonin

Same assay, conditions: 0.375 mL of 7% helper ester + 0.8% melatonin in water on skin of the back (20 cm×20 cm); control 2.0 ml of […] melatonin suspension in water; plasma level at 1, 2, 4, 8 hours

Row | SMILES | transdermal delivery of melatonin compared to control composition (A)
4 | CCCCN(CCCC)CCOC(=O)c1ccccc1OC(C)=O [2-(Dibutylamino)ethyl 2-acetoxybenzoate] | more efficient and effective transdermal delivery of melatonin
5 | CCN(CC)CCCOC(=O)c1ccccc1OC(C)=O [3-(Diethylamino)propyl 2-acetoxybenzoate] | more efficient and effective transdermal delivery of melatonin

Same assay, conditions: 0.60 mL of 7% helper ester + 0.5% melatonin in water on skin of the back (20 cm×20 cm); control 2.0 ml of […] melatonin suspension in water; plasma level at 1, 2, 4, 8 hours

Row | SMILES | transdermal delivery of melatonin compared to control composition (A)
6 | CC(C)Cc1ccc(C(C)C(=O)OCCN(C)C)cc1 (centres unmarked) [2-(Dimethylamino)ethyl 2-(4-isobutylphenyl)propionate] | more efficient and effective transdermal delivery of melatonin
7 | CCCCCCOC(=O)[C@@H]1CCCN1 [Proline hexyl ester] | more efficient and effective transdermal delivery of melatonin
8 | CCCCCCOC(=O)[C@@H](N)CC(C)C [Leucine hexyl ester] | more efficient and effective transdermal delivery of melatonin
9 | CC[C@H](C)[C@H](N)C(=O)OC(C)C [Isoleucine isopropyl ester] | more efficient and effective transdermal delivery of melatonin
10 | COC(=O)[C@@H]1CCCN1 [Proline methyl ester] | more efficient and effective transdermal delivery of melatonin
11 | CC(C)OC(=O)[C@@H]1CCCN1 [Proline isopropyl ester] | more efficient and effective transdermal delivery of melatonin
12 | CC(C)OC(=O)[C@@H](N)Cc1ccccc1 [Phenylalanine isopropyl ester] | more efficient and effective transdermal delivery of melatonin
13 | CCCCCCCCOC(=O)[C@@H](N)Cc1ccccc1 [Phenylalanine octyl ester] | more efficient and effective transdermal delivery of melatonin
14 | CCN(CC)CCCCCOC(=O)C(C)c1ccc(CC(C)C)cc1 (centres unmarked) [5-(Diethylamino)pentyl 2-(4-isobutylphenyl)propionate] | more efficient and effective transdermal delivery of melatonin
